Laboratory results taken from patent publication US20090018111A1, “Novel Antimicrobial Medicament” (priority 2004, published 2009).
Like-named read-outs stand apart in the source and are kept apart here.

Legend:
[1] = test system: E. faecium ATCC19434; experiment: Sensitivity test (agar dilution); assay type: cell-based, Enterococcus faecium
Summary of the method: (§1)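 Each strain, cultured overnight at 37° C and adjusted to about 10^6 CFU/ml in BSG, was spotted (about 5 μl) on Mueller Hinton agar with twofold serial drug concentrations. Inhibition defines the MIC.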

[2] = test system: P. mirabiris GN2425; experiment: Sensitivity test (agar dilution); assay type: cell-based, Proteus mirabilis; settings: Proteus mirabilis
Summary of the method: as §1

[3] = test system: S. epidermidis IAM1296; experiment: Sensitivity test (agar dilution); assay type: cell-based, Staphylococcus epidermidis; settings: Staphylococcus epidermidis
Summary of the method: as §1

[4] = test system: E. cloacae GN7471; experiment: Sensitivity test (agar dilution); assay type: cell-based, Enterobacter cloacae; settings: Enterobacter cloacae
Summary of the method: as §1

[5] = test system: S. marcescens GN6473; experiment: Sensitivity test (agar dilution); assay type: cell-based, Serratia marcescens; settings: Serratia marcescens
Summary of the method: as §1

[6] = test system: S. marcescens X 100; experiment: Sensitivity test (agar dilution); assay type: cell-based, Serratia marcescens; settings: Serratia marcescens
Summary of the method: as §1

[7] = test system: S. maltophilia IID1275; experiment: Sensitivity test (agar dilution); assay type: cell-based, Stenotrophomonas maltophilia; settings: Stenotrophomonas maltophilia
Summary of the method: as §1

[8] = test system: C. freundii GN346; experiment: Sensitivity test (agar dilution); assay type: cell-based, Citrobacter freundii; settings: Citrobacter freundii
Summary of the method: as §1

[9] = test system: M. catarrhalis ATCC25238; experiment: Sensitivity test (agar dilution); assay type: cell-based, Moraxella catarrhalis; settings: Moraxella catarrhalis
Summary of the method: as §1

[10] = test system: M. catarrhalis ATCC8176; experiment: Sensitivity test (agar dilution); assay type: cell-based, Moraxella catarrhalis; settings: Moraxella catarrhalis
Summary of the method: as §1

[11] = test system: K. pneumoniae ATCC10031; experiment: Sensitivity test (agar dilution); assay type: cell-based, Klebsiella pneumoniae; settings: Klebsiella pneumoniae
Summary of the method: as §1

[12] = test system: M. luteus ATCC9341; experiment: Sensitivity test (agar dilution); assay type: cell-based, Micrococcus luteus; settings: Micrococcus luteus
Summary of the method: as §1

[13] = test system: E. coli ML1410 RP4; experiment: microbe, parasite or virus in culture; assay type: cell-based, Escherichia coli; settings: Escherichia coli
Summary of the method: as §1

## CCN1CCN(C(=O)N[C@@H](C(=O)N[C@@H]2C(=O)N3[C@@H]2SC(C)(C)[C@@H]3C(=O)O)c2ccccc2)C(=O)C1=O [PIPC, piperacillin]
[1]; Enterococcus faecium, ATCC19434, Concomitant (PIPC:SM = 1:1), E. faecium ATCC19434, read-out: MIC concomitant
  MIC: 0.125 µg/mL
[1]; Enterococcus faecium, ATCC19434, drug alone, E. faecium ATCC19434, read-out: MIC alone
  MIC: 8 µg/mL
[2]; GN2425, read-out: MIC alone, drug alone, P. mirabiris GN2425
  MIC: 0.25 µg/mL
[2]; GN2425, read-out: MIC concomitant, Concomitant (PIPC:SM = 1:1), P. mirabiris GN2425
  MIC: 0.063 µg/mL
[3]; IAM1296, Concomitant (PIPC:SM = 1:1), S. epidermidis IAM1296, read-out: MIC concomitant
  MIC: 0.016 µg/mL
[3]; IAM1296, drug alone, S. epidermidis IAM1296, read-out: MIC alone
  MIC: 2 µg/mL
[4]; GN7471, Concomitant (PIPC:SM = 1:1), E. cloacae GN7471, read-out: MIC concomitant
  MIC: 8 µg/mL
[4]; GN7471, drug alone, E. cloacae GN7471, read-out: MIC alone
  MIC: 16 µg/mL
[5]; GN6473, Concomitant (PIPC:SM = 1:1), S. marcescens GN6473, read-out: MIC concomitant
  MIC: 4 µg/mL
[5]; GN6473, drug alone, S. marcescens GN6473, read-out: MIC alone
  MIC: > 32 µg/mL
[6]; X100, Concomitant (PIPC:SM = 1:1), S. marcescens X 100, read-out: MIC concomitant
  MIC: 0.25 µg/mL
[6]; X100, drug alone, S. marcescens X 100, read-out: MIC alone
  MIC: 0.5 µg/mL
[7]; IID1275, Concomitant (PIPC:SM = 1:1), S. maltophilia IID1275, read-out: MIC concomitant
  MIC: > 32 µg/mL
[7]; IID1275, drug alone, S. maltophilia IID1275, read-out: MIC alone
  MIC: > 32 µg/mL
[8]; GN346, Concomitant (PIPC:SM = 1:1), C. freundii GN346, read-out: MIC concomitant
  MIC: 8 µg/mL
[8]; GN346, drug alone, C. freundii GN346, read-out: MIC alone
  MIC: 1 µg/mL
[9]; ATCC25238, Concomitant (PIPC:SM = 1:1), M. catarrhalis ATCC25238, read-out: MIC concomitant
  MIC: ≤ 0.002 µg/mL
[9]; ATCC25238, drug alone, M. catarrhalis ATCC25238, read-out: MIC alone
  MIC: 0.008 µg/mL
[10]; ATCC8176, Concomitant (PIPC:SM = 1:1), M. catarrhalis ATCC8176, read-out: MIC concomitant
  MIC: ≤ 0.002 µg/mL
[10]; ATCC8176, drug alone, M. catarrhalis ATCC8176, read-out: MIC alone
  MIC: 0.016 µg/mL
[11]; ATCC10031, Concomitant (PIPC:SM = 1:1), K. pneumoniae ATCC10031, read-out: MIC concomitant
  MIC: 0.016 µg/mL
[11]; ATCC10031, drug alone, K. pneumoniae ATCC10031, read-out: MIC alone
  MIC: 0.25 µg/mL
[12]; ATCC9341, Concomitant (PIPC:SM = 1:1), M. luteus ATCC9341, read-out: MIC concomitant
  MIC: ≤ 0.002 µg/mL
[12]; ATCC9341, drug alone, M. luteus ATCC9341, read-out: MIC alone
  MIC: 0.031 µg/mL
[13]; ML1410RP4, read-out: MIC alone, drug alone, E. coli ML1410 RP4
  MIC: > 32 µg/mL
[13]; ML1410RP4, read-out: MIC concomitant, Concomitant (PIPC:SM = 1:1), E. coli ML1410 RP4
  MIC: 0.5 µg/mL

## C[C@@H](O)[C@H]1C(=O)N2C(C(=O)O)=C(S[C@@H]3CN[C@H](C(=O)N(C)C)C3)[C@H](C)[C@H]12 [MEPM, meropenem]
[1]; Concomitant (MEPM:SM = 1:2)
  MIC: 0.125 µg/mL
[1]; Enterococcus faecium, ATCC19434
  MIC: 0.125 µg/mL
[1]; Enterococcus faecium, ATCC19434, Concomitant (MEPM:SM = 1:4), read-out: MIC
  MIC: 0.031 µg/mL
[1]; Enterococcus faecium, ATCC19434, Concomitant drug (MEPM:SM = 2:1), read-out: MIC
  MIC: 0.5 µg/mL
[1]; Enterococcus faecium, ATCC19434, alone, read-out: MIC
  MIC: 8 µg/mL
[2]; GN2425, Concomitant (MEPM:SM = 1:1), read-out: MIC
  MIC: ≤ 0.016 µg/mL
[2]; GN2425, Concomitant (MEPM:SM = 1:2), read-out: MIC
  MIC: 0.031 µg/mL
[2]; GN2425, Concomitant (MEPM:SM = 1:4), read-out: MIC
  MIC: ≤ 0.016 µg/mL
[2]; GN2425, Concomitant drug (MEPM:SM = 2:1), read-out: MIC
  MIC: 0.031 µg/mL
[2]; GN2425, alone, read-out: MIC
  MIC: 0.063 µg/mL
[3]; IAM1296, Concomitant (MEPM:SM = 1:1), read-out: MIC
  MIC: ≤ 0.016 µg/mL
[3]; IAM1296, Concomitant (MEPM:SM = 1:2), read-out: MIC
  MIC: ≤ 0.016 µg/mL
[3]; IAM1296, Concomitant (MEPM:SM = 1:4), read-out: MIC
  MIC: ≤ 0.016 µg/mL
[3]; IAM1296, Concomitant drug (MEPM:SM = 2:1), read-out: MIC
  MIC: 0.063 µg/mL
[3]; IAM1296, alone, read-out: MIC
  MIC: 1 µg/mL
[4]; GN7471, Concomitant (MEPM:SM = 1:1), read-out: MIC
  MIC: 0.031 µg/mL
[4]; GN7471, Concomitant (MEPM:SM = 1:2), read-out: MIC
  MIC: 0.031 µg/mL
[4]; GN7471, Concomitant (MEPM:SM = 1:4), read-out: MIC
  MIC: 0.031 µg/mL
[4]; GN7471, Concomitant drug (MEPM:SM = 2:1), read-out: MIC
  MIC: 0.031 µg/mL
[4]; GN7471, alone, read-out: MIC
  MIC: 0.063 µg/mL
[5]; GN6473, Concomitant (MEPM:SM = 1:1), read-out: MIC
  MIC: 0.031 µg/mL
[5]; GN6473, Concomitant (MEPM:SM = 1:2), read-out: MIC
  MIC: 0.031 µg/mL
[5]; GN6473, Concomitant (MEPM:SM = 1:4), read-out: MIC
  MIC: 0.031 µg/mL
[5]; GN6473, Concomitant drug (MEPM:SM = 2:1), read-out: MIC
  MIC: 0.031 µg/mL
[5]; GN6473, alone, read-out: MIC
  MIC: 0.063 µg/mL
[6]; X100, Concomitant (MEPM:SM = 1:1), read-out: MIC
  MIC: ≤ 0.016 µg/mL
[6]; X100, Concomitant (MEPM:SM = 1:2), read-out: MIC
  MIC: ≤ 0.016 µg/mL
[6]; X100, Concomitant (MEPM:SM = 1:4), read-out: MIC
  MIC: ≤ 0.016 µg/mL
[6]; X100, Concomitant drug (MEPM:SM = 2:1), read-out: MIC
  MIC: 0.031 µg/mL
[6]; X100, alone, read-out: MIC
  MIC: 0.031 µg/mL
[7]; IID1275, Concomitant (MEPM:SM = 1:1), read-out: MIC
  MIC: > 32 µg/mL
[7]; IID1275, Concomitant (MEPM:SM = 1:2), read-out: MIC
  MIC: > 32 µg/mL
[7]; IID1275, Concomitant (MEPM:SM = 1:4), read-out: MIC
  MIC: > 32 µg/mL
[7]; IID1275, Concomitant drug (MEPM:SM = 2:1), read-out: MIC
  MIC: > 32 µg/mL
[7]; IID1275, alone, read-out: MIC
  MIC: > 32 µg/mL
[8]; GN346, Concomitant (MEPM:SM = 1:1), read-out: MIC
  MIC: 0.031 µg/mL
[8]; GN346, Concomitant (MEPM:SM = 1:2), read-out: MIC
  MIC: 0.031 µg/mL
[8]; GN346, Concomitant (MEPM:SM = 1:4), read-out: MIC
  MIC: 0.031 µg/mL
[8]; GN346, Concomitant drug (MEPM:SM = 2:1), read-out: MIC
  MIC: 0.031 µg/mL
[8]; GN346, alone, read-out: MIC
  MIC: 0.063 µg/mL
[9]; ATCC25238, Concomitant (MEPM:SM = 1:1), read-out: MIC
  MIC: ≤ 0.016 µg/mL
[9]; ATCC25238, Concomitant (MEPM:SM = 1:2), read-out: MIC
  MIC: ≤ 0.016 µg/mL
[9]; ATCC25238, Concomitant (MEPM:SM = 1:4), read-out: MIC
  MIC: ≤ 0.016 µg/mL
[9]; ATCC25238, Concomitant drug (MEPM:SM = 2:1), read-out: MIC
  MIC: ≤ 0.016 µg/mL
[9]; ATCC25238, alone, read-out: MIC
  MIC: ≤ 0.016 µg/mL
[10]; ATCC8176, Concomitant (MEPM:SM = 1:1), read-out: MIC
  MIC: ≤ 0.016 µg/mL
[10]; ATCC8176, Concomitant (MEPM:SM = 1:2), read-out: MIC
  MIC: ≤ 0.016 µg/mL
[10]; ATCC8176, Concomitant (MEPM:SM = 1:4), read-out: MIC
  MIC: ≤ 0.016 µg/mL
[10]; ATCC8176, Concomitant drug (MEPM:SM = 2:1), read-out: MIC
  MIC: ≤ 0.016 µg/mL
[10]; ATCC8176, alone, read-out: MIC
  MIC: ≤ 0.016 µg/mL
[11]; ATCC10031, Concomitant (MEPM:SM = 1:1), read-out: MIC
  MIC: ≤ 0.016 µg/mL
[11]; ATCC10031, Concomitant (MEPM:SM = 1:2), read-out: MIC
  MIC: ≤ 0.016 µg/mL
[11]; ATCC10031, Concomitant (MEPM:SM = 1:4), read-out: MIC
  MIC: ≤ 0.016 µg/mL
[11]; ATCC10031, Concomitant drug (MEPM:SM = 2:1), read-out: MIC
  MIC: ≤ 0.016 µg/mL
[11]; ATCC10031, alone, read-out: MIC
  MIC: ≤ 0.016 µg/mL
[12]; ATCC9341
  MIC: 0.125 µg/mL
[12]; ATCC9341, Concomitant (MEPM:SM = 1:1), read-out: MIC
  MIC: ≤ 0.016 µg/mL
[12]; ATCC9341, Concomitant (MEPM:SM = 1:2), read-out: MIC
  MIC: ≤ 0.016 µg/mL
[12]; ATCC9341, Concomitant (MEPM:SM = 1:4), read-out: MIC
  MIC: ≤ 0.016 µg/mL
[12]; ATCC9341, Concomitant drug (MEPM:SM = 2:1), read-out: MIC
  MIC: ≤ 0.016 µg/mL
[13]; ML1410RP4, Concomitant (MEPM:SM = 1:1)
  MIC: ≤ 0.016 µg/mL
[13]; ML1410RP4, Concomitant (MEPM:SM = 1:2)
  MIC: ≤ 0.016 µg/mL
[13]; ML1410RP4, Concomitant (MEPM:SM = 1:4)
  MIC: ≤ 0.016 µg/mL
[13]; ML1410RP4, Concomitant drug (MEPM:SM = 2:1)
  MIC: ≤ 0.016 µg/mL
[13]; ML1410RP4, alone
  MIC: 0.031 µg/mL
